# In PubChem BioAssay (NCI):
#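 Protocol summary: plate cells (96-well), add compound at 5 concentrations, incubate 48 h, interpolate endpoints linearly. GI50 is the concentration that inhibits growth by half. TGI: total growth inhibition.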
# Experiments:
# Experiment in all cases: NCI tumour cell line growth inhibition, 48 h
# HOP-92 NSCLC = system: HOP-92 NSCLC
# UACC-257 melanoma = system: UACC-257 melanoma
# NCI-H23 lung = system: NCI-H23 lung
# BT-549 breast = system: BT-549 breast
# COLO 205 colon = system: COLO 205 colon
# SN12C renal = system: SN12C renal
# SF-539 CNS = system: SF-539 CNS
# TK-10 renal = system: TK-10 renal
# CCRF-CEM leukemia = system: CCRF-CEM leukemia
# NCI-H460 lung = system: NCI-H460 lung
# HT29 colon = system: HT29 colon
# UACC-62 melanoma = system: UACC-62 melanoma
# SK-MEL-2 melanoma = system: SK-MEL-2 melanoma
# IGROV1 ovarian = system: IGROV1 ovarian
# HCT-116 colon = system: HCT-116 colon
# SW-620 colon = system: SW-620 colon
# OVCAR-4 ovarian = system: OVCAR-4 ovarian
# SNB-19 CNS = system: SNB-19 CNS
# SK-OV-3 ovarian = system: SK-OV-3 ovarian
# DU-145 prostate = system: DU-145 prostate
# MDA-MB-435 = system: MDA-MB-435
# SF-295 CNS = system: SF-295 CNS
# HOP-62 NSCLC = system: HOP-62 NSCLC
# T-47D breast = system: T-47D breast
# M14 melanoma = system: M14 melanoma
# NCI/ADR-RES ovarian = system: NCI/ADR-RES ovarian
# EKVX NSCLC = system: EKVX NSCLC
# HCT-15 colon = system: HCT-15 colon
# ACHN renal = system: ACHN renal
# OVCAR-3 ovarian = system: OVCAR-3 ovarian
# HL-60(TB) leukemia = system: HL-60(TB) leukemia
# RPMI-8226 leukemia = system: RPMI-8226 leukemia
# MALME-3M melanoma = system: MALME-3M melanoma
# MOLT-4 leukemia = system: MOLT-4 leukemia
# SK-MEL-5 melanoma = system: SK-MEL-5 melanoma
# MDA-MB-231 breast = system: MDA-MB-231 breast
# HS 578T breast = system: HS 578T breast
# PC-3 prostate = system: PC-3 prostate
# A549 NSCLC = system: A549 NSCLC
# SK-MEL-28 melanoma = system: SK-MEL-28 melanoma
# OVCAR-5 ovarian = system: OVCAR-5 ovarian
# HCC-2998 colon = system: HCC-2998 colon
# A498 renal = system: A498 renal
# NCI-H522 lung = system: NCI-H522 lung
# U251 CNS = system: U251 CNS
# OVCAR-8 ovarian = system: OVCAR-8 ovarian
# K-562 leukemia = system: K-562 leukemia
# 786-0 renal = system: 786-0 renal
# SF-268 CNS = system: SF-268 CNS
# CAKI-1 renal = system: CAKI-1 renal
# KM12 colon = system: KM12 colon
# LOX IMVI melanoma = system: LOX IMVI melanoma
# RXF 393 renal = system: RXF 393 renal
# MCF7 breast = system: MCF7 breast
# SNB-75 CNS = system: SNB-75 CNS
smiles,measurement,setting,value
CC1NC(=O)C2Cc3ccc(O)c(c3)Oc3ccc(cc3)C(O)C(C(=O)N2C)N(C)C(=O)C(C)NC(=O)C(Cc2ccc(O)cc2)N(C)C(=O)C(C)NC1=O (configuration not stated),TGI,HOP-92 NSCLC,> 100 µM
same,TGI,UACC-257 melanoma,> 100 µM
same,TGI,NCI-H23 lung,> 100 µM
same,TGI,BT-549 breast,> 100 µM
COc1cc([C@@H]2c3cc4c(cc3[C@@H](c3c(O)cc(O)c5c3O[C@H](c3ccc(O)c(O)c3)[C@@H](O)C5)[C@H]3COC(=O)[C@H]23)OCO4)cc(OC)c1OC,TGI,COLO 205 colon,51.8 µM
same,TGI,SN12C renal,> 100 µM
same,TGI,SF-539 CNS,> 100 µM
same,TGI,TK-10 renal,3.53 µM
same,TGI,CCRF-CEM leukemia,> 100 µM
same,TGI,NCI-H460 lung,3.72 µM
same,TGI,HT29 colon,63.9 µM
same,TGI,UACC-62 melanoma,3.13 µM
same,TGI,SK-MEL-2 melanoma,3.75 µM
same,TGI,IGROV1 ovarian,> 100 µM
same,TGI,HCT-116 colon,> 100 µM
same,TGI,SW-620 colon,> 100 µM
same,TGI,OVCAR-4 ovarian,3.35 µM
same,TGI,SNB-19 CNS,> 100 µM
same,TGI,SK-OV-3 ovarian,3.36 µM
same,TGI,DU-145 prostate,3.22 µM
same,TGI,MDA-MB-435,3.13 µM
same,TGI,SF-295 CNS,3.45 µM
same,TGI,HOP-62 NSCLC,3.76 µM
same,TGI,T-47D breast,5.16 µM
same,TGI,M14 melanoma,> 100 µM
same,TGI,NCI/ADR-RES ovarian,> 100 µM
same,TGI,EKVX NSCLC,> 100 µM
same,TGI,HCT-15 colon,> 100 µM
same,TGI,ACHN renal,3.16 µM
same,TGI,OVCAR-3 ovarian,3.22 µM
same,TGI,HL-60(TB) leukemia,> 100 µM
same,TGI,RPMI-8226 leukemia,59.4 µM
same,TGI,MALME-3M melanoma,> 100 µM
same,TGI,MOLT-4 leukemia,> 100 µM
same,TGI,SK-MEL-5 melanoma,92.7 µM
same,TGI,HOP-92 NSCLC,> 100 µM
same,TGI,MDA-MB-231 breast,3.28 µM
same,TGI,HS 578T breast,> 100 µM
same,TGI,UACC-257 melanoma,3.81 µM
same,TGI,PC-3 prostate,3.38 µM
same,TGI,A549 NSCLC,> 100 µM
same,TGI,NCI-H23 lung,> 100 µM
same,TGI,BT-549 breast,> 100 µM
same,TGI,SK-MEL-28 melanoma,> 100 µM
same,TGI,OVCAR-5 ovarian,69.7 µM
same,TGI,HCC-2998 colon,3.48 µM
same,TGI,A498 renal,2.95 µM
same,TGI,NCI-H522 lung,> 100 µM
same,TGI,U251 CNS,3.64 µM
same,TGI,OVCAR-8 ovarian,> 100 µM
same,TGI,K-562 leukemia,78.5 µM
same,TGI,786-0 renal,> 100 µM
same,TGI,SF-268 CNS,> 100 µM
same,TGI,CAKI-1 renal,3.57 µM
same,TGI,KM12 colon,3.33 µM
same,TGI,LOX IMVI melanoma,> 100 µM
same,TGI,RXF 393 renal,3.28 µM
same,TGI,MCF7 breast,3.11 µM
C=C(C)[C@@H]1CC[C@]2(C(=O)N[C@H](CO)Cc3ccccc3)CC[C@]3(C)[C@H](CC[C@@H]4[C@@]5(C)CCCNC(C)(C)[C@@H]5CC[C@]43C)[C@@H]12,GI50,TK-10 renal,1.61 µM
same,TGI,TK-10 renal,3.08 µM
same,GI50,HT29 colon,0.24 µM
same,TGI,HT29 colon,0.539 µM
same,GI50,UACC-62 melanoma,1.76 µM
same,TGI,UACC-62 melanoma,3.39 µM
same,GI50,SK-MEL-2 melanoma,1.72 µM
same,TGI,SK-MEL-2 melanoma,3.18 µM
same,GI50,SNB-75 CNS,1.43 µM
same,TGI,SNB-75 CNS,2.87 µM
same,GI50,SK-MEL-5 melanoma,1.67 µM
same,TGI,SK-MEL-5 melanoma,3.07 µM
same,GI50,HOP-92 NSCLC,1.42 µM
same,TGI,HOP-92 NSCLC,3.02 µM
same,GI50,UACC-257 melanoma,1.78 µM
same,TGI,UACC-257 melanoma,3.34 µM
same,GI50,A498 renal,1.49 µM
same,TGI,A498 renal,2.94 µM
same,GI50,NCI-H522 lung,1.75 µM
same,TGI,NCI-H522 lung,3.35 µM
same,GI50,CAKI-1 renal,1.49 µM
same,TGI,CAKI-1 renal,2.89 µM
same,GI50,KM12 colon,1.47 µM
same,TGI,KM12 colon,2.91 µM
